Source: patent US20050222200A1, “AMIDE DERIVATIVES AS ION CHANNEL LIGANDS AND PHARMACEUTICAL COMPOSITIONS AND METHODS OF USING THE SAME” (Renovis, Inc., priority 2003, published 2005)

These compounds were tested against VR1 (Rattus norvegicus, UniProt O35433) (assay: Calcium imaging assay: inhibition of capsaicin induced calcium influx in DRG neurons (Fura2, microscope)). Settings: capsaicin stimulation; class symbols per legend.
Chain of VR1 (O35433 whole entry): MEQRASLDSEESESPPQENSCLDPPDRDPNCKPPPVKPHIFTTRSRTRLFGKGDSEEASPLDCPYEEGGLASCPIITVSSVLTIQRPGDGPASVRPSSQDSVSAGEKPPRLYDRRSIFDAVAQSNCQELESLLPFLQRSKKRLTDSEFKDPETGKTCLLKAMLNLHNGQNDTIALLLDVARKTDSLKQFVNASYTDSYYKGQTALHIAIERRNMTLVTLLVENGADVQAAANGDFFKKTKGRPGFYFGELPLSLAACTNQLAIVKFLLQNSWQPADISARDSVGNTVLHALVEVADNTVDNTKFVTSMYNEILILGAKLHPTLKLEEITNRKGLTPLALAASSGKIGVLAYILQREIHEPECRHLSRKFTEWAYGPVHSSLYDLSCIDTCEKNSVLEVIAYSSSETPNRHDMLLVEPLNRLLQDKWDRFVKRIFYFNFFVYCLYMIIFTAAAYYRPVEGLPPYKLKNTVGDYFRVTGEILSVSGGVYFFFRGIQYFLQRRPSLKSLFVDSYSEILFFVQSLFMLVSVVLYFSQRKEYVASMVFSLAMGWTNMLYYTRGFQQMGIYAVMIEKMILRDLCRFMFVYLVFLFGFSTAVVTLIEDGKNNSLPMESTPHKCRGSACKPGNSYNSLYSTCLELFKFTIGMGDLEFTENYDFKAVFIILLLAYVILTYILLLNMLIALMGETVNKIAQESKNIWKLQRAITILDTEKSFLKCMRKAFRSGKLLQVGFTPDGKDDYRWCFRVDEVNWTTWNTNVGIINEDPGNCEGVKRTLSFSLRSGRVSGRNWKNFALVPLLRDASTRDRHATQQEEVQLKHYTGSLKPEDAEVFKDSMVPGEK
Format: cell-based
Parameters: endogenous in cells; host or cells: DRG neurons
Experimental: VR1 protein is a heat-gated cation channel that […] resulting in neuronal membrane depolarization and elevated intracellular calcium levels. Therefore the functional activity of compounds at the VR1 receptor may be determined by measuring changes in intracellular calcium levels in neurons such as the dorsal root ganglion.
DRG neurons were grown on PDL coated 96-well black-walled plates, in the presence of DMEM medium containing 5% Penstrep, 5% Glutamax, 200 μg/ml hygromycin, 5 μg/ml blasticide and 10% heat inactivated FBS. Prior to assay, cells were loaded with 5 μg/ml Fura2 in normal saline solution at 37° C for 40 minutes. Cells were then washed with normal saline to remove dye before commencement of the experiment.
The plated neurons were transferred into a chamber on the stage of a Nikon eclipse TE300 microscope after which neurons were allowed to attain a stable fluorescence for about 10 minutes before beginning the experiment. The assay consists of two stages, a pretreatment phase followed by a treatment phase. First, a solution of the test compound was added from a multivalve perfusion system to the cells for 1 minute (pretreatment). Immediately following, capsaicin (250 nM) was added in the presence of the test compound (treatment) for a specific period between 20 and 60 seconds.
Fura2 was excited at […] to indicate relative calcium ion concentration. Changes in wavelength measurements were made throughout the course of the experiment. The fluorescence ratio was calculated by dividing fluorescence measured at 340 nm by that at 380 nM. Data was collected using Intelligent Imaging’s Slidebook software. All compounds that inhibited capsaicin induced calcium influx greater than 75% were considered positives.
Fluorescence reflecting calcium ion influx is reduced.
For `CCC/C=C/c1ccc(C(=O)Nc2ccnc(Cl)c2)cc1` [Compound 261], the “inhibition of calcium ion influx induced by capsaicin stimulation” value (“inhibition of calcium ion influx induced” for short) was “+ (compound exhibited 0-25% inhibition of calcium ion influx induced by capsaicin stimulation)”.
With `CCC/C=C/c1ccc(C(=O)NCc2cccnc2)cc1` [Compound 267] the “inhibition of calcium ion influx induced” value was “+ (compound exhibited 0-25% inhibition of calcium ion influx induced by capsaicin stimulation)”.
For `COc1ccccc1CNC(=O)c1ccc(/C(C)=C/C(C)(C)C)cc1` [Compound 275], the “inhibition of calcium ion influx induced” value was “+ (compound exhibited 0-25% inhibition of calcium ion influx induced by capsaicin stimulation)”.
In the case of `C/C(=C\C(C)(C)C)c1ccc(C(=O)NCc2ccncc2)cc1` [Compound 281], the “inhibition of calcium ion influx induced” value is reported as “+ (compound exhibited 0-25% inhibition of calcium ion influx induced by capsaicin stimulation)”.
In the case of `C/C(=C\C(C)(C)C)c1ccc(C(=O)NC(c2ccccc2)c2ccccc2)cc1` [Compound 283], the “inhibition of calcium ion influx induced” value is reported as “+ (compound exhibited 0-25% inhibition of calcium ion influx induced by capsaicin stimulation)”.
For `C/C(=C\C(C)(C)C)c1ccc(C(=O)NCCc2ccccc2Cl)cc1` [Compound 286], the “inhibition of calcium ion influx induced” value was “+ (compound exhibited 0-25% inhibition of calcium ion influx induced by capsaicin stimulation)”.
For `C/C(=C\C(C)(C)C)c1ccc(C(=O)NC2CCC(C(C)(C)C)CC2)cc1` (centres unmarked) [Compound 287], the “inhibition of calcium ion influx induced” value was “+ (compound exhibited 0-25% inhibition of calcium ion influx induced by capsaicin stimulation)”.
With `C/C(=C\C(C)(C)C)c1ccc(C(=O)NCCc2ccc(S(N)(=O)=O)cc2)cc1` [Compound 304] the “inhibition of calcium ion influx induced” value was “+ (compound exhibited 0-25% inhibition of calcium ion influx induced by capsaicin stimulation)”.
With `COc1cc(CNC(=O)c2ccc(/C(C)=C/C(C)(C)C)cc2)cc(OC)c1OC` [Compound 305] the “inhibition of calcium ion influx induced” value was “+ (compound exhibited 0-25% inhibition of calcium ion influx induced by capsaicin stimulation)”.
In the case of `C/C(=C\C(C)(C)C)c1ccc(C(=O)NCc2ccccn2)cc1` [Compound 308], the “inhibition of calcium ion influx induced” value is reported as “+ (compound exhibited 0-25% inhibition of calcium ion influx induced by capsaicin stimulation)”.
For `C/C(=C\C(C)(C)C)c1ccc(C(=O)Nc2ccccc2O)cc1` [Compound 313], the “inhibition of calcium ion influx induced” value was “+ (compound exhibited 0-25% inhibition of calcium ion influx induced by capsaicin stimulation)”.
For `CCNC(=O)c1ccc(/C(C)=C/C(C)(C)C)cc1` [Compound 315], the “inhibition of calcium ion influx induced” value was “+ (compound exhibited 0-25% inhibition of calcium ion influx induced by capsaicin stimulation)”.
`C/C(=C\C(C)(C)C)c1ccc(C(=O)NCc2cccs2)cc1` [Compound 316] was tested, and the “inhibition of calcium ion influx induced” value was “++ (compound exhibited 25-50% inhibition of calcium ion influx induced by capsaicin stimulation)”.
For `C/C(=C\C(C)(C)C)c1ccc(C(=O)Nc2cc(C)ccn2)cc1` [Compound 324], the “inhibition of calcium ion influx induced” value was “+ (compound exhibited 0-25% inhibition of calcium ion influx induced by capsaicin stimulation)”.
In the case of `COc1ccc(NC(=O)c2ccc(/C(C)=C/C(C)(C)C)cc2)cc1Cl` [Compound 330], the “inhibition of calcium ion influx induced” value is reported as “+ (compound exhibited 0-25% inhibition of calcium ion influx induced by capsaicin stimulation)”.
With `C/C(=C\C(C)(C)C)c1ccc(C(=O)Nc2ccc(C(F)(F)F)cc2)cc1` [Compound 331] the “inhibition of calcium ion influx induced” value was “+++ (compound exhibited 50-75% inhibition of calcium ion influx induced by capsaicin stimulation)”.
With `C/C(=C\C(C)(C)C)c1ccc(C(=O)Nc2cccc(C#N)c2)cc1` [Compound 332] the “inhibition of calcium ion influx induced” value was “+++ (compound exhibited 50-75% inhibition of calcium ion influx induced by capsaicin stimulation)”.
For `C/C(=C\C(C)(C)C)c1ccc(C(=O)Nc2ccc(C(C)(C)C)cc2)cc1` [Compound 334], the “inhibition of calcium ion influx induced” value was “+++ (compound exhibited 50-75% inhibition of calcium ion influx induced by capsaicin stimulation)”.
`CCCCc1ccc(NC(=O)c2ccc(/C(C)=C/C(C)(C)C)cc2)cc1` [Compound 336] was tested, and the “inhibition of calcium ion influx induced” value was “++ (compound exhibited 25-50% inhibition of calcium ion influx induced by capsaicin stimulation)”.
`COc1cc(NC(=O)c2ccc(/C(C)=C/C(C)(C)C)cc2)cc(C(F)(F)F)c1` [Compound 337] was tested, and the “inhibition of calcium ion influx induced” value was “+ (compound exhibited 0-25% inhibition of calcium ion influx induced by capsaicin stimulation)”.
In the case of `C/C(=C\C(C)(C)C)c1ccc(C(=O)Nc2ccc(C)cc2C)cc1` [Compound 338], the “inhibition of calcium ion influx induced” value is reported as “+ (compound exhibited 0-25% inhibition of calcium ion influx induced by capsaicin stimulation)”.
For `C/C(=C\C(C)(C)C)c1ccc(C(=O)Nc2ccncn2)cc1` [Compound 341], the “inhibition of calcium ion influx induced” value was “+ (compound exhibited 0-25% inhibition of calcium ion influx induced by capsaicin stimulation)”.
`C/C(=C\C(C)(C)C)c1ccc(C(=O)Nc2ccc(C(F)(F)F)cn2)cc1` [Compound 344] was tested, and the “inhibition of calcium ion influx induced” value was “+ (compound exhibited 0-25% inhibition of calcium ion influx induced by capsaicin stimulation)”.
For `C/C(=C\C(C)(C)C)c1ccc(C(=O)Nc2ncc(C(F)(F)F)cc2Cl)cc1` [Compound 345], the “inhibition of calcium ion influx induced” value was “+ (compound exhibited 0-25% inhibition of calcium ion influx induced by capsaicin stimulation)”.
With `C/C(=C\C(C)(C)C)c1ccc(C(=O)NCCc2cnc[nH]2)cc1` [Compound 356] the “inhibition of calcium ion influx induced” value was “+ (compound exhibited 0-25% inhibition of calcium ion influx induced by capsaicin stimulation)”.
In the case of `C/C(=C\C(C)(C)C)c1ccc(C(=O)NCc2cccnc2)cc1` [Compound 357], the “inhibition of calcium ion influx induced” value is reported as “+ (compound exhibited 0-25% inhibition of calcium ion influx induced by capsaicin stimulation)”.
In the case of `C/C(=C/C(C)(C)C)c1ccc(C(=O)Nc2ccc3ccccc3c2)cc1` [Compound 358], the “inhibition of calcium ion influx induced” value is reported as “++++ (compound exhibited 75% or greater inhibition of calcium ion influx induced by capsaicin stimulation)”.
With `CC(C)(C)C#Cc1ccc(C(=O)Nc2ccc3c(c2)OCO3)cc1` [Compound 361] the “inhibition of calcium ion influx induced” value was “++++ (compound exhibited 75% or greater inhibition of calcium ion influx induced by capsaicin stimulation)”.
`CCN(CC)CCOC(=O)c1ccc(NC(=O)c2ccc(C#CC(C)(C)C)cc2)cc1` [Compound 363] was tested, and the “inhibition of calcium ion influx induced” value was “+++ (compound exhibited 50-75% inhibition of calcium ion influx induced by capsaicin stimulation)”.
In the case of `COc1cccc(NC(=O)c2ccc(C#CC(C)(C)C)cc2)c1` [Compound 364], the “inhibition of calcium ion influx induced” value is reported as “++++ (compound exhibited 75% or greater inhibition of calcium ion influx induced by capsaicin stimulation)”.
With `CC(C)(C)C#Cc1ccc(C(=O)Nc2ccc(Cl)cc2)cc1` [Compound 365] the “inhibition of calcium ion influx induced” value was “+ (compound exhibited 0-25% inhibition of calcium ion influx induced by capsaicin stimulation)”.
`COc1ccc(NC(=O)c2ccc(C#CC(C)(C)C)cc2)cc1Cl` [Compound 366] was tested, and the “inhibition of calcium ion influx induced” value was “++ (compound exhibited 25-50% inhibition of calcium ion influx induced by capsaicin stimulation)”.
For `CC(C)(C)C#Cc1ccc(C(=O)Nc2ccc(C(F)(F)F)cc2)cc1` [Compound 367], the “inhibition of calcium ion influx induced” value was “++ (compound exhibited 25-50% inhibition of calcium ion influx induced by capsaicin stimulation)”.
`CC(C)(C)C#Cc1ccc(C(=O)Nc2ccc(Cl)c(C(F)(F)F)c2)cc1` [Compound 368] was tested, and the “inhibition of calcium ion influx induced” value was “++++ (compound exhibited 75% or greater inhibition of calcium ion influx induced by capsaicin stimulation)”.
In the case of `COc1cc(NC(=O)c2ccc(C#CC(C)(C)C)cc2)cc(C(F)(F)F)c1` [Compound 372], the “inhibition of calcium ion influx induced” value is reported as “++++ (compound exhibited 75% or greater inhibition of calcium ion influx induced by capsaicin stimulation)”.
With `CC(C)(C)C#Cc1ccc(C(=O)Nc2ccc3c(c2)OCCO3)cc1` [Compound 373] the “inhibition of calcium ion influx induced” value was “++++ (compound exhibited 75% or greater inhibition of calcium ion influx induced by capsaicin stimulation)”.
For `CC(C)(C)C#Cc1ccc(C(=O)Nc2cccc(C(F)(F)F)c2)cc1` [Compound 374], the “inhibition of calcium ion influx induced” value was “++++ (compound exhibited 75% or greater inhibition of calcium ion influx induced by capsaicin stimulation)”.
For `CC(C)Oc1cccc(NC(=O)c2ccc(C#CC(C)(C)C)cc2)c1` [Compound 376], the “inhibition of calcium ion influx induced” value was “+++ (compound exhibited 50-75% inhibition of calcium ion influx induced by capsaicin stimulation)”.
`CC(C)(C)C#Cc1ccc(C(=O)Nc2ccc(S(C)(=O)=O)cc2)cc1` [Compound 377] was tested, and the “inhibition of calcium ion influx induced” value was “++++ (compound exhibited 75% or greater inhibition of calcium ion influx induced by capsaicin stimulation)”.
`CC(C)(C)C#Cc1ccc(C(=O)Nc2cccc3cnccc23)cc1` [Compound 378] was tested, and the “inhibition of calcium ion influx induced” value was “++++ (compound exhibited 75% or greater inhibition of calcium ion influx induced by capsaicin stimulation)”.
`CC(C)(C)C#Cc1ccc(C(=O)Nc2cnc3ccccc3c2)cc1` [Compound 379] was tested, and the “inhibition of calcium ion influx induced” value was “++++ (compound exhibited 75% or greater inhibition of calcium ion influx induced by capsaicin stimulation)”.
